The values below come from patent US5496564A, “Suspendible composition and process for preparing the same” (Fujisawa Pharmaceutical Co., Ltd., priority 1990, dated 1996).

The nature of the data set: Absorption test by oral administration: concentration in whole blood. The data set is classed as in vivo. The following applies: cynomolgus monkey, cynomolgus monkeys (six), oral 0.32 mg/kg, aqueous suspension of Prescription 7 diluted to 0.064 mg/ml, average ± standard error, read-out: Conc. in whole blood. On the procedure: The aqueous suspension obtained in Prescription 7 was used.
The oral agent mentioned above was diluted with purified water to have the concentration of FK 506 substance of 0.064 mg/ml. The resultant was orally administered to six cynomolgus monkeys (0.32 mg/kg).
The concentration of FK 506 substance in whole blood was measured 0.5, 1, 2, 4 and 6 hours after the administration in accordance with the aforesaid enzyme immunoassay.
The test results are represented by the average ± standard error.

Turning to `C=CCC1C=C(C)CC(C)CC(OC)C2OC(O)(C(=O)C(=O)N3CCCCC3C(=O)OC(C(C)=CC3CCC(O)C(OC)C3)C(C)C(O)CC1=O)C(C)CC2OC` (centres unmarked) [FK 506 substance, 17-allyl-1,14-dihydroxy-12-[2-(4-hydroxy-3-methoxycyclohexyl)-1-methylvinyl]-23,25-dimethoxy-13,19,21,27-tetramethyl-11,28-dioxa-4-azatricyclo-[22.3.1.0^4,9]octacos-18-ene-2,3,10,16-tetraone], the concentration at 0.5 h (0.5 hours) is 13.4 ± 9.88 ng/mL. Further, the concentration at 1 h (1 hour) was found to be 18.6 ± 9.36 ng/mL. Further, under “2 hours”, the concentration at 2 h amounted to 18.6 ± 9.89 ng/mL. Besides, the concentration at 4 h (4 hours) was found to be 15.3 ± 7.77 ng/mL. For the same molecule, where the note is “6 hours”, the concentration at 6 h is 12.4 ± 9.33 ng/mL.
